Laboratory results published in article PMC10510102, “Efficient Ligand Discovery Using Sulfur(VI) Fluoride Reactive Fragments” (ACS Chemical Biology, 2023).

Target: T1, BCL6 (Homo sapiens, UniProt P41182, C67R/C84N/C8Q)
T1 construct: hBCL6-Flag-6H-Avi 3Cmut (5–129) produced as part of the GSK/GenScript collaboration; Flag (C); 6H (His6) (C); Avi (C)
Experiment: Identification of site(s) of covalent modification by tandem MS
Details: 2 μM BCL6, 100 μM SF, 4 °C, 24 h; trypsin digest LC-MS/MS
Method: The top hits from the SF screen with BCL6 represented two distinct chemotypes: meta-substituted benzamides (2f and 2g) and azetidine aryl ethers (2h and 2i). These were resynthesized and purified for follow-up studies. […] Tyr57 has previously been targeted by a BCL6 inhibitor (14, TMX-2164); however, the targeting of His115 is a novel modification; these residues are located on opposite sides of the binding site of previously reported BCL6 inhibitors (11–14) (see Figure 5b).
7. BCL6 – site of binding studies and iterative screen
7.1. Identification of the site(s) of covalent modification by tandem MS (BCL6)
The (resynthesized and purified) SF hits (2f–i) were plated into a Greiner 384 PP F-bottom plate from a 10 mM source in DMSO. Purified BCL6 diluted from original stock into a buffer made up of HEPES (pH 7.5, 25 mM) and NaCl (50 mM) in distilled MS-grade water (50 µL per well) was subsequently added across the plate. Final concentrations: 2 µM protein; 100 µM SF. The plate was sealed, centrifuged (1 min, 1000 rpm), incubated at 4 °C for 24 h, and 15 µL aliquots were subsequently removed and analyzed by intact protein LC-MS.
The remaining samples (1 μg) were separated by SDS-PAGE to remove excess unbound compound. Gels were stained with colloidal Comassie InstantBlue and bands corresponding to BCL6 were excised, reduced with 10 mM TCEP (65 °C, 30 mins), and alkylated with 10 mM iodoacetamide (r.t., 30 mins, dark). Samples were digested with trypsin (Promega) 1:10 E:S (37 °C, 16 h) in 100 mM ammonium bicarbonate. After removal of the supernatant, peptides were extracted using acetonitrile. Combined supernatants were concentrated in a SpeedVac centrifuge and acidified (0.1% formic acid, 0.05% trifluoroacetic acid) prior to injection into the LC-MS/MS system.
Digested samples were injected on an Easy-nLC 1200 UHPLC system (Thermo Scientific). The nanoLC was interfaced to an Orbitrap Fusion Lumos Mass Spectrometer (Thermo Scientific). Tryptic peptides were loaded on a 2 cm × 75 µm Acclaim PepMap 100 C18 trapping column (Thermo Scientific) and separated on a 25 cm × 75 μm, 2 µm particles, PepMap C18, 2 μm particle column (Thermo Scientific) using a 50 min gradient of 2–38% acetonitrile, 0.2% formic acid and a flow of 300 nL/min. LC-MS/MS based peptide sequencing was performed by data dependent analysis (DDA). Full MS 350–1600 Da at 120,000 resolution, MS AGC target 1e6, MS Maximum IT 50 ms, followed by MS/MS using a 3 sec. cycle time, stepped collision energy mode at 25, 29 and 32 CE%, Isolation window 1.6 m/z, fixed first mass 145 m/z, 15,000 orbitrap resolution, MS/MS AGC target 1e5 and MS/MS Maximum IT 200 ms. Alternatively, samples were analyzed by Parallel Reaction Monitoring (PRM) targeting precursor ions relative to the modified peptides. […]

| SMILES | site of covalent modification |
| --- | --- |
| NC(=O)c1ccccc1OC1CN(C(=O)Cc2ccc(S(=O)(=O)F)cc2)C1 [2i] | His115 |
| O=C(Cc1ccc(S(=O)(=O)F)cc1)N1CC(Oc2ccc(F)c(F)c2)C1 [2h] | His115 |
| CC(=O)Nc1cccc(CNC(=O)Cc2ccc(S(=O)(=O)F)cc2)c1 [2g] | Tyr57 |
| CN(C)C(=O)Nc1cccc(CNC(=O)Cc2ccc(S(=O)(=O)F)cc2)c1 [2f] | Tyr57 |
